Source: ChEMBL document CHEMBL5154652, “Design, synthesis and anti-hepatocellular carcinoma activity of 3-arylisoquinoline alkaloids” (Eur J Med Chem, 2022)
Calls of active or inactive are those of the source. The rule behind the calls is not given here.

What was measured:
[1] = system: HepG2; experiment: Antiproliferative activity against human HepG2 cells after 72 hrs by MTT assay; format: functional, cell-based; conditions: HepG2, 72 h
[2] = system: L02; experiment: Antiproliferative activity against human L02 cells after 72 hrs by MTT assay; format: functional, cell-based; conditions: L02, 72 h
[3] = system: HCCLM9; experiment: Induction of apoptosis in human HCCLM9 cells assessed as reduction in Bcl-2 expression at 3.75 to 15 uM; format: functional, cell-based; conditions: dose 3.75-15 µM
[4] = system: HCCLM9; experiment: Antitumor activity against human HCCLM9 cells xenografted in male BALB/c nude mouse assessed as inhibition of tumor growth at 15 mg/kg, iv administered once a day for 21 days; format: functional, organism-based; conditions: time 21.0 day
[5] = Genotoxicity in human Huh-7 cells assessed as induction of DNA damage at 20 uM by comet assay; format: toxicity, cell-based; conditions: huh-7, 20 µM
[6] = system: SGC-7901; experiment: Antiproliferative activity against human SGC-7901 cells after 72 hrs by MTT assay; format: functional, cell-based; conditions: SGC-7901, 72 h
[7] = system: Huh-7; experiment: Inhibition of cell migration in human Huh-7 cells at 2 to 8 uM after 24 hrs by transwell assay; format: functional, cell-based; conditions: dose 2-8 µM
[8] = system: HCCLM9; experiment: Induction of apoptosis in human HCCLM9 cells assessed as increase in cleaved caspase-9 expression at 3.75 to 15 uM; format: functional, cell-based; conditions: dose 3.75-15 µM
[9] = system: Huh-7; experiment: Induction of apoptosis in human Huh-7 cells assessed as increase in cleaved caspase-9 expression at 5 to 20 uM; format: functional, cell-based; conditions: dose 5-20 µM
[10] = system: HCCLM9; experiment: Induction of apoptosis in human HCCLM9 cells assessed as increase in cytochrome C expression at 3.75 to 15 uM; format: functional, cell-based; conditions: dose 3.75-15 µM
[11] = system: A549; experiment: Antiproliferative activity against human A549 cells after 72 hrs by MTT assay; format: functional, cell-based; conditions: A549, 72 h
[12] = system: HCCLM9; experiment: Inhibition of cell migration in human HCCLM9 cells at 1.25 to 5 uM after 24 hrs by transwell assay; format: functional, cell-based; conditions: dose 1.25-5 µM
[13] = system: HCCLM9; experiment: Induction of mitochondrial apoptosis in human HCCLM9 cells assessed as inhibition of p-Akt levels at 3.75 to 15 uM measured after 48 hrs by Western blot analysis; format: functional, cell-based; conditions: dose 3.75-15 µM
[14] = system: HCCLM9; experiment: Induction of mitochondrial dysfunction in human HCCLM9 cells assessed as decrease in MMP levels at 5 to 20 uM; format: functional, cell-based; conditions: dose 5-20 µM
[15] = system: Huh-7; experiment: Induction of mitochondrial apoptosis in human Huh-7 cells assessed as inhibition of p-Akt levels at 5 to 20 uM measured after 48 hrs by Western blot analysis; format: functional, cell-based; conditions: dose 5-20 µM
[16] = system: Huh-7; experiment: Induction of cell cycle arrest in human Huh-7 cells assessed as decrease in cell accumulation at S phase at 5 to 20 uM measured after 48 hrs by flow cytometry analysis; format: functional, cell-based; conditions: dose 5-20 µM
[17] = system: HGC-27; experiment: Antiproliferative activity against human HGC-27 cells after 72 hrs by MTT assay; format: functional, cell-based; conditions: HGC-27, 72 h
[18] = Tmax in male Sprague-Dawley rat at 100 mg/kg, ip; format: ADME, organism-based; conditions: in vivo
[19] = system: Huh-7; experiment: Antiproliferative activity against human Huh-7 cells at 2 to 8 uM after 24 hrs by EdU incorporation assay; format: functional, cell-based; conditions: dose 2-8 µM
[20] = system: MDA-MB-231; experiment: Antiproliferative activity against human MDA-MB-231 cells after 72 hrs by MTT assay; format: functional, cell-based; conditions: MDA-MB-231, 72 h
[21] = system: Huh-7; experiment: Induction of apoptosis in human Huh-7 cells assessed as increase in cleaved caspase-3 expression at 5 to 20 uM; format: functional, cell-based; conditions: dose 5-20 µM
[22] = system: Huh-7; experiment: Induction of apoptosis in human Huh-7 cells at 5 to 20 uM measured by Annexin V /propidium iodide staining method; format: functional, cell-based; conditions: dose 5-20 µM
[23] = system: Huh-7; experiment: Induction of apoptosis in human Huh-7 cells assessed as increase in cytochrome C expression at 5 to 20 uM; format: functional, cell-based; conditions: dose 5-20 µM

IC50 [1]: 52 µM
IC50 [6]: 30.8 µM
IC50 [11]: 36.3 µM
Tmax [18]: 1 h
IC50 [20]: 19.9 µM
SMILES: CNCc1cc2c(cc1-c1cc3ccc4c(c3cn1)OCO4)OCO2
IC50 [2]: > 150 µM
Activity [3]: Active
Activity [4]: Active
Activity [5]: Non-Toxic
inhibition [7]: Active
Activity [8]: Active
Activity [9]: Active
Activity [10]: Active
inhibition [12]: Active
Activity [13]: Active
Activity [14]: Active
Activity [15]: Active
Activity [16]: Active
IC50 [17]: 34.2 µM
Activity [19]: Active
Activity [21]: Active
Activity [22]: Active
Activity [23]: Active
